Experimental data published in PMC11173677, “Identification and Evaluation of Olive Phenolics in the Context of Amine Oxidase Enzyme Inhibition and Depression: In Silico Modelling and In Vitro Validation” (Molecules, 2024).

Key:
BJ cells = experiment: Viability of BJ cells (CellTiter-Blue Cell Viability Assay); assay type: cell-based, human; details: for IC50: Homo sapiens, BJ
Experimental: The BJ cells were seeded at densities of 10,000 cells in black flat bottom 96-well plates (Nalge Nunc, Penfield, Rochester, NY, USA) and treated with a dose–response of OLC (0–500 μM) and OLP (0–500 μM) for 24 h, 48 h, 72 h, and 7 days at 37 °C, 5% (v/v) CO2. Cell viability was measured using the Cell-Titer Blue® Assay kit (Promega, Madison, WI, USA) according to the manufacturer’s instructions. Cell-Titer Blue reagent was added to each well and incubated for 4 h at 37 °C with 5% (v/v) CO2 before the fluorescence intensity was read using the CLARIOstar Microplate Reader (BMG Labtech, Ortenberg, Germany).
A Nikon Eclipse Ts2 light microscope (Nikon Ti TS2-S-SM, Tokyo, Japan) was used to image untreated and treated BJ cells (OLP or OLC: 0–100 μM) at 4× objective magnification at 20, 44, and 120 h (Figures S1 and S2).

purified LSD1 = purified LSD1 (Homo sapiens, UniProt O60341); experiment: LSD1 direct screening assay (Epigentek inhibitory screening kit); assay type: biochemical; details: direct incubation with purified LSD1, Epigentek kit; read-out: IC50, inhibition of LSD1
Experimental: Fluorescence was measured using a CLARIOstar Plus Microplate Reader (BMG Labtech, Ortenberg, Germany) at excitation and emission wavelengths of 530 nm and 590 nm, respectively (Ex/Em = 530/590 nm).

LSD1 = tested on: T1, LSD1; experiment: LSD1 activity in nuclear extracts of BJ cells stimulated with DEX; assay type: cell-based, human; details: DEX 50 μM 72 h, then TCP 5 μM or OLP, HT, HTA 50 μM for 48 h
T1 construct: nuclear proteins extracted from the BJ cultures were directly assayed for LSD1 activity; endogenous in cells; host or cells: BJ human foreskin fibroblasts (nuclear extract, DEX-stimulated)
Experimental: Histone demethylase LSD1 activity assay
4µL of nuclear extracts containing 5µg protein was added to designated strip wells with stably
captured LSD1 substrate (H3K4me2), followed by an additional 26µL of H3K4me2 (HG3)
substrate diluted in assay buffer (HG2). In no enzyme control wells, the 4µL of nuclear
extracts was replaced with 4µL of assay buffer. Blank wells contained 30µL of assay buffer.
A standard curve was generated by adding 1µL of standard (HG4) at incrementally increasing
concentrations (0.1-10ng/µL) to 29µL of assay buffer in designated standard wells. After all
wells were loaded appropriately, the assay plate was incubated away from light at room
temperature for 60 minutes. Following incubation, contents were aspirated and wells were
washed three times with 150µL of wash buffer (HG1). 50µL of capture antibody (HG5)
diluted at a 1:1000 ratio was then added to all wells before incubating at room temperature
for 60 minutes on a rotating platform. Well contents were then aspirated and washed four
times with 150µL of wash buffer. 50µL of detection antibody (HG6) diluted at a 1:1000 ration
was then added to each well. Assay plate was then incubated for a final time at room
temperature for 30 minutes. Well contents were aspirated again, followed by six washes with
150µL wash buffer. 50µL of fluoro-developer (HG7) was then added into each well and
allowed to develop away from light for 1-5 minutes. Fluorescence was then read on a
CLARIOstar Microplate Reader (BMG Labtech, Ortenberg Germany) at Ex/Em =

H3K4 mono-methylation = H3K4 mono-methylation in BJ cells (Western blotting); assay type: cell-based, human; details: 50 μM, 48 h, compared to untreated cells; effects more pronounced with DEX
Experimental: As described in the Supplementary Information, nuclear proteins extracted from the BJ cultures were directly assayed for LSD1 activity (Epigentek P-3076, Farmingdale, NY, USA). Fluorescence was read on a CLARIOstar Microplate Reader (BMG Labtech, Ortenberg, Germany) at Ex/Em = 530/590 nm (Figure S4). Histone proteins were extracted from the treated cultures and were analysed through Western blotting. The mono-methylation status of lysine on histone 3 (H3K4) was determined via immunodetection (Table S6).
100µL of Nuclear Extraction Buffer containing 0.2µL 1M DTT and 0.4µL PIC was then added to the remaining nuclei-containing pellets. Full resuspension was achieved through multiple rounds of vigorous vortexing and ice incubations (to maintain protein integrity). Once the entire pellet was visibly resuspended in NEB, tubes were centrifuged at 16,000g for 10 minutes. The resulting supernatant containing the nuclear extract fraction was transferred to clean 0.5mL tubes and stored at -80°C.
Acid extraction of histone proteins
Cells were washed in 10mL of pre-chilled PBS (1X) and detached from flask surface via mechanical disruption using a cell scraper. Cell solution was then transferred into a 15mL tube and centrifuged at 150g for 10 minutes. Supernatant was then discarded and the remaining cell pellet resuspended in 0.5mL PBS (1X) and transferred into a 1.5mL microcentrifuge tube. Cells were then centrifuged at 9400g for 20 seconds, after which the supernatant was removed and discarded. The remaining pellet was then briefly resuspended in 600µL of acid extraction lysis buffer (10mM KCl, 10mM HEPES, […]) containing cOmplete™ Mini Protease Inhibitor Cocktail (Sigma-Aldrich, Roche 11836153001, MO USA) and 0.3µL 1M DTT. This will cause cells to pre-swell, resulting in a reduced amount of PBS (1X) remaining in the microcentrifuge tube that may deter maximal cell lysis capacity. Cells were then centrifuged at 9400g for 20 seconds with the resultant supernatant aspirated and discarded. […]

Which “relative viability of BJ cells at the highest concentration” value (BJ cells; 500 μM) does the source give for `COC(=O)[C@H](O)CC(=O)OCCc1ccc(O)c(O)c1` [OLP, oleohydroxypyretol] here?
Its value is “decreased”.

And the “proliferation potential of BJ cells” value (BJ cells; 25, 50, 75 and 100 μM, similar to untreated cells)?
The value was “maintained their proliferation potential”.

And the IC50 (BJ cells; 24 h)?
The IC50 was 220 µM.

What about the IC50 (BJ cells; 48 h) of the same compound?
The IC50 was 257 µM.

What about the “toxicity to BJ cells at the concentrations used in further experiments” value (BJ cells; concentrations used in further experiments (50 μM)) of the same compound?
The value was “non-toxic”.

What about the “viability of BJ cells at lower concentrations” value (BJ cells; up to 200 μM) of the same compound?
The value was “largely maintained”.

What about the IC50 (purified LSD1) of the same compound?
Its IC50 is 0.8 µM.

And the “LSD1 activity in BJ cultures stimulated with DEX” value (LSD1)?
Its value is “significant reduction”.

And the “baseline levels of H3K4 mono-methylation in BJ cells” value (H3K4 mono-methylation)?
Its value is “increased”.
